Assay results published in patent publication US12551526B2, “Enterically delivered bitter oligopeptides for the treatment for type 2 diabetes” (Cedars-Sinai Medical Center, priority 2015, dated 2026).
Positions count from the first letter of the chain named. “Also recorded” adds a separate entry of the source. Like-named read-outs stand apart in the source and are kept apart here.

Tests used:
HuTu-80 cells [1] = assay: GLP-1 release from cultured HuTu-80 cells (Luminex assay); format: cell-based, human; conditions: FIG. 3; printed as based on in vivo studies in mice
HuTu-80 cells [2] = assay: as above; format: cell-based, human; conditions: for GLP-1 release: HuTu-80 cells treated 30 min, GLP-1 in conditioned media; for GLP-1 release compared with TAS2R38 ligands PTC and PTU / increase in GLP-1 over the basal release: HuTu-80 cells; for GLP-1 release compared with TAS2R38 ligands PTC and PTU: FIG. 9B, PTC and PTU 10 mM; for increase in GLP-1 over the basal release: 30 min, FIG. 9A
Experimental: HuTu-80 cells were untreated (zero-time) or treated with vehicle and various phytochemicals at indicated concentrations for 30 min. […] Values are mean±SE, N=3, *P<0.05, **P<0.01
HuTu-80 cells (HTB-40, ATCC) were propagated in Dulbecco's modified Eagle's medium (DMEM) containing 4 mM L-glutamine, 1.5 g/L sodium bicarbonate, and 4.5 g/L glucose, supplemented with 10% FBS and PSG antibiotic mix and maintained at 10% CO2 and 37° C. For experiments, these cells were seeded in 6-well plates or […] tissue culture dishes, propagated to confluence (5-7 days) and arrested in serum-free media overnight prior to treatments. Prior to the experiment, spent media was replaced with OPTI-MEM (Gibco, Life Technologies, Grand Island, NY) containing Halt Protease and Phosphatase Inhibitor cocktail (Thermo Fisher Scientific, Rockford, IL) and individual wells dosed for 30 min. […] The media from cells was collected and frozen for subsequent peptide hormone release measurement using a Luminex MAGPIX metabolism multiplexing assay kit (HMHMAG-34K) following the manufacturer's instructions.

GLP-1 release = assay: In vivo GLP-1 release in mice after gastric gavage; conditions: PTU-cellulose 5 g/kg, PTU 200 mg/kg, FIG. 4B
Experimental: FIG. 4A Synthesis of PTU-cellulose.
Retro-orbital blood was obtained and GLP-1 was measured at regular intervals.
The molecules were administered by gastric gavage to pathogen-free, 6-to-8-week-old male BALB/c mice. […] The cellulose alone had no effect.

TAS2R38 = biological target: T1, TAS2R38 (Homo sapiens, UniProt P59533); assay: GLP-1 release in HuTu-80 cells with TAS2R38 siRNA knockdown; format: cell-based; conditions: siTAS2R38 versus siCONTROL, 30 min
T1 construct: Cultured HuTu-80 cells were transfected with single and mixed oligonucleotide siRNAs for TAS2R38; host or cells: HuTu-80
T1 sequence (P59533 1-333): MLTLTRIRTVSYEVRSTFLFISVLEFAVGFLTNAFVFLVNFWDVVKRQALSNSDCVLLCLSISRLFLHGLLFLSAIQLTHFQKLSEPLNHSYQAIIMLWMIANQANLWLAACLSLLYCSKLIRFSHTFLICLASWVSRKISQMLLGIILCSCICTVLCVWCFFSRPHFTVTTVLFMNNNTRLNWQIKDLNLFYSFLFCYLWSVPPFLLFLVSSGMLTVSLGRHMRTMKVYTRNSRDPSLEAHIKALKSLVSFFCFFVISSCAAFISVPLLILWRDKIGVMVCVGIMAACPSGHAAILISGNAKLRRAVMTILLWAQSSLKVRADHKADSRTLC
Experimental: In order to determine the specific GPCR mediating the response of a particular ligand, we performed in vitro RNA silencing of TAS2R38. RNA silencing was performed using a commercial kit (FlexiTube siRNA, Qiagen) consisting of 4 predesigned oligonucleotides that specifically target each gene transcript. Each kit also had accompanying controls and quantifying assays for detection of gene knockdown. Cultured HuTu-80 cells were transfected with single and mixed oligonucleotide siRNAs for TAS2R38 using HiPerFect transfection reagent (Qiagen) or Lipofectamine 2000 (Life Tech) according to the procedure recommended by the manufacturer. Cells were maintained in the basal medium for up to 48 h. Gene knockdown was evaluated by RT-qPCR and Western blot by suitable antibody to ensure inhibition occurred. […] Dose-response curve of the ligand with and without siRNA treatment was generated.
FIGS. 6, 7, and 8 show the receptor expression and knockdown in HuTu-80 cells using a TAS2R38 receptor siRNA.
Conditioned media were collected and frozen until GLP-1 measurement. Values are mean±SD, N=3. GLP-1 is measured using Luminex assay.

HuTu-80 cells [3] = conditions: previous studies; cited from earlier work
hTAS2R38AVI = biological target: T2, hTAS2R38AVI (Homo sapiens, UniProt P59533, A262V); conditions: non-taster haplotype; cited from earlier work
T2 sequence (P59533 1-333 A262V): T1 sequence (P59533 1-333) with A262V

hTAS2R38PAV = biological target: T3, hTAS2R38PAV (Homo sapiens, UniProt P59533); conditions: taster haplotype; cited from earlier work
T3 sequence (P59533 1-333): T1 sequence (P59533 1-333)

For “YPFPGPIPN [BPx2, bitter oligopeptide derived from milk-whey proteins]”, the “potency rank among the four oligopeptides” value (HuTu-80 cells [1]) was “most potent”.
For `CN(C)C(=N)N=C(N)N` [metformin], the GLP-1 release (HuTu-80 cells [2]) was “can activate GLP-1 release”.
In the case of `CCCCCCCCCCCCCCCC(=O)O` [palmitate, palmitic acid], the GLP-1 release (HuTu-80 cells [2]) is reported as “GLP-1 secretory response was also observed” and the “GLP-1 release compared with TAS2R38 ligands PTC and PTU” value (HuTu-80 cells [2]) is reported as “stimulate GLP-1 release comparable to that by TAS2R38 ligands PTC and PTU”.
With `CCCc1cc(=O)[nH]c(=S)[nH]1` [PTU, 6-n-propylthiouracil] the “GLP-1 release into the blood” value (GLP-1 release) was “caused GLP-1 release into the blood”, the “GLP-1 release when TAS2R38 expression is knocked down” value (TAS2R38) was “right-shifted” and the GLP-1 release (HuTu-80 cells [2]) was “caused GLP-1 release”.
For `CCC(=O)O` [propionate], the GLP-1 release (HuTu-80 cells [2]) was “GLP-1 secretory response was also observed” and the “GLP-1 release compared with TAS2R38 ligands PTC and PTU” value (HuTu-80 cells [2]) was “stimulate GLP-1 release comparable to that by TAS2R38 ligands PTC and PTU”.
In the case of `O=c1oc2c(O)c(O)cc3c(=O)oc4c(O)c(O)cc1c4c23` [ellagic acid], the “increase in GLP-1 over the basal release” value (HuTu-80 cells [2]) is reported as “significant increases”.
For `CC1(C)CC[C@]2(C(=O)O)CC[C@]3(C)C(=CC[C@@H]4[C@@]5(C)CC[C@H](O)C(C)(C)[C@@H]5CC[C@]43C)[C@@H]2C1` [oleanolic acid], the “increase in GLP-1 over the basal release” value (HuTu-80 cells [2]) was “significant increases”.
For `O=c1oc2cc(O)ccc2c2ccc(O)cc12` [urolithin A], the “increase in GLP-1 over the basal release” value (HuTu-80 cells [2]) was “significant increases”.
In the case of `NC(=S)Nc1ccccc1` [PTC, Phenylthiocarbamide], the GLP-1 release (HuTu-80 cells [3]) is given as “GLP-1 release”, the receptor response (hTAS2R38AVI) is given as “does not respond” and the receptor response (hTAS2R38PAV) is given as “strong response at μM concentrations”.
For “Ala-Ala-Ala-Ala (AAAA; printed: Ala-Ala-Ala-Ala) [PolyAla, scrambled PolyAla control peptide]”, the GLP-1 release (HuTu-80 cells [2]) was “in effective at causing GLP-1 release”.
With “YGLF [BPx1, bitter oligopeptide derived from milk-whey proteins]” the “potency rank among the four oligopeptides” value (HuTu-80 cells [1]) was “most potent” and the “GLP-1 release when TAS2R38 expression is knocked down” value (TAS2R38) was “predominantly through TAS2R38; also recorded: decreased”.
